Converted amounts (≈) assume the structure as drawn.
Experiments:
MCF7 [1] = experiment: Antiproliferative activity against human MCF7 cells assessed as cell growth inhibition; type: functional, cell-based
MDA-MB-231 [2] = experiment: Antiproliferative activity against human MDA-MB-231 cells assessed as cell growth inhibition; type: functional, cell-based
L929 = experiment: Cytotoxicity against mouse L929 cells at 50 ug/ml relative to control; type: toxicity, cell-based; conditions: at 50 µg/mL
MDA-MB-231 [3] = experiment: Cytotoxicity against human MDA-MB-231 cells at 50 ug/ml relative to control; type: functional; conditions: dose 50 µg/ml
A549 [4] = experiment: Antiproliferative activity against human A549 cells incubated for 72 hrs by MTT assay; type: functional, cell-based; conditions: A549, 72 h
CCRF-CEM = experiment: Antiproliferative activity against human CEM cells incubated for 72 hrs by MTT assay; type: functional, cell-based
MDA-MB-231 [5] = experiment: Antiproliferative activity against human MDA-MB-231 cells incubated for 72 hrs by MTT assay; type: functional, cell-based; conditions: MDA-MB-231, 72 h
HeLa [6] = experiment: Antiproliferative activity against human HeLa cells incubated for 72 hrs by MTT assay; type: functional, cell-based
Caco-2 = experiment: Antiproliferative activity against human Caco-2 cells incubated for 72 hrs by MTT assay; type: functional, cell-based; conditions: Caco-2, 72 h
Jurkat = experiment: Antiproliferative activity against human Jurkat cells incubated for 72 hrs by MTT assay; type: functional, cell-based
MCF7 [7] = experiment: Antiproliferative activity against human MCF7 cells incubated for 72 hrs by MTT assay; type: functional, cell-based; conditions: MCF7, 72 h
HCT-116 [8] = experiment: Antiproliferative activity against human HCT-116 cells incubated for 72 hrs by MTT assay; type: functional, cell-based; conditions: HCT-116, 72 h
HCT-116 [9] = experiment: Anticancer activity against human HCT-116 cells measured after 48 hrs by Sulforhodamine B assay; type: functional, cell-based; conditions: HCT-116, 48 h
T47D = experiment: Anticancer activity against human T47D cells measured after 48 hrs by Sulforhodamine B assay; type: functional, cell-based
MCF7 [10] = experiment: Anticancer activity against human MCF7 cells measured after 48 hrs by Sulforhodamine B assay; type: functional, cell-based; conditions: MCF7, 48 h
HeLa [11] = experiment: Anticancer activity against human HeLa cells measured after 48 hrs by Sulforhodamine B assay; type: functional, cell-based
HepG2 [12] = experiment: Anticancer activity against human HepG2 cells measured after 48 hrs by Sulforhodamine B assay; type: functional, cell-based; conditions: HepG2, 48 h
HeLa [13] = experiment: Cytotoxicity against human HeLa cells assessed as reduction in cell viability; type: functional, cell-based
MCF7 [14] = experiment: Cytotoxicity against human MCF7 cells assessed as reduction in cell viability; type: functional, cell-based
PC-3 = experiment: Growth inhibition of human PC-3 cells assessed as reduction in cell viability by SRB assay; type: functional
MCF7 [15] = experiment: Growth inhibition of human MCF7 cells assessed as reduction in cell viability by SRB assay; type: functional
COLO 205 = experiment: Growth inhibition of human COLO 205 cells assessed as reduction in cell viability by SRB assay; type: functional
[16] = Anticancer activity against human Panel (56 tumour cell lines) at 10 uM relative to control; type: functional
MDA-MB-231 [17] = experiment: Antiproliferative activity against human MDA-MB-231 cells; type: functional, cell-based
HeLa [18] = experiment: Antiproliferative activity against human HeLa cells; type: functional, cell-based
MCF7 [19] = experiment: Antiproliferative activity against human MCF7 cells assessed as reduction in cell viability; type: functional, cell-based
A549 [20] = experiment: Antiproliferative activity against human A549 cells assessed as reduction in cell viability; type: functional, cell-based
U-937 = experiment: Antiproliferative activity against human U-937 cells measured upto 72 hrs by microscopy based analysis; type: functional, cell-based; conditions: U-937, 72 h
K562 = experiment: Antiproliferative activity against human K562 cells measured upto 72 hrs by microscopy based analysis; type: functional, cell-based; conditions: K562, 72 h
MCF7 [21] = experiment: Anticancer activity against human MCF7 cells assessed as reduction in cell viability; type: functional, cell-based
HepG2 [22] = experiment: Anticancer activity against human HepG2 cells assessed as reduction in cell viability; type: functional, cell-based
WI-38 = experiment: Cytotoxicity against human WI-38 cells assessed as reduction in cell growth; type: functional, cell-based
MCF7 [23] = experiment: Cytotoxicity against human MCF7 cells assessed as reduction in cell growth; type: functional, cell-based
[24] = system: Panel NCI-60 (60 carcinoma cell lines); experiment: Growth inhibition of human Panel NCI-60 (60 carcinoma cell lines) cells; type: functional
A2780 = experiment: Antiproliferative activity against human A2780 cells assessed as inhibition of cell growth; type: functional, cell-based
MCF7 [25] = experiment: Antiproliferative activity against human MCF7 cells assessed as inhibition of cell growth; type: functional, cell-based
HT-29 = experiment: Antiproliferative activity against human HT-29 cells assessed as inhibition of cell growth; type: functional, cell-based

O=C1N(c2ccccc2)C(=O)C2(CC(c3ccccc3O)=NO2)N1C1CCCCC1 (configuration not stated)
IC50 (MCF7 [1]): 42.3 µM
IC50 (MDA-MB-231 [2]): 67.9 µM

CN1CCN(Cc2ccc([N+](=O)[O-])cc2)P12=NP(N1CCCCC1)(N1CCCCC1)=NP(N1CCCCC1)(N1CCCCC1)=N2 (configuration not stated)
Activity (L929): 70%
Activity (MDA-MB-231 [3]): 30%

CON1c2ccccc2[C@@]2(CN=C(Nc3cc(C(F)(F)F)cc(C(F)(F)F)c3)S2)[C@@H]1Nc1cc(C(F)(F)F)cc(C(F)(F)F)c1
IC50 (A549 [4]): 2000 nM
IC50 (CCRF-CEM): 5000 nM
IC50 (MDA-MB-231 [5]): 4 µM
IC50 (HeLa [6]): 3000 nM
IC50 (Caco-2): 47 µM
IC50 (Jurkat): 2000 nM
IC50 (MCF7 [7]): 2000 nM
IC50 (HCT-116 [8]): 65.1 µM

COc1ccc2c(c1)[C@]1(C(=O)N2)N(C)C[C@@H](c2ccc(F)cc2)[C@@]12CN(C)C/C(=C\c1ccc(F)cc1)C2=O
IC50 (HCT-116 [9]): 2860 nM
IC50 (T47D): 2.98 µM
IC50 (MCF7 [10]): 3.1 µM
IC50 (HeLa [11]): 2880 nM
IC50 (HepG2 [12]): 3.08 µM

CN1C/C(=C\c2ccc(F)cc2)C(=O)[C@@]2(C1)[C@H](c1ccc(F)cc1)CN(C)[C@]21C(=O)Nc2ccc(Cl)cc21
IC50 (HCT-116 [9]): 2740 nM
IC50 (T47D): 3.1 µM
IC50 (MCF7 [10]): 2.98 µM
IC50 (HeLa [11]): 2750 nM
IC50 (HepG2 [12]): 3.08 µM

Cc1ccc2[nH]c3c(c2c1)CC1(C3=O)C(c2ccc(F)cc2)C2CSCN2C12C(=O)Nc1ccccc12 (configuration not stated)
IC50 (HeLa [13]): 79 µM
IC50 (MCF7 [14]): 19.4 µM

CCOP1(=O)N(CC)N=NC12SC1=CCCCC1=C2C#N (configuration not stated)
GI50 (PC-3): 9.97 µM
GI50 (MCF7 [15]): 5.03 µM
GI50 (COLO 205): 17.8 µM

CON1c2ccccc2[C@@]2(CN=C(Nc3cc(C(F)(F)F)cc(C(F)(F)F)c3)S2)[C@H]1Nc1cc(C(F)(F)F)cc(C(F)(F)F)c1
IC50 (A549 [4]): 2500 nM
IC50 (CCRF-CEM): 1000 nM
IC50 (MDA-MB-231 [5]): 3.5 µM
IC50 (HeLa [6]): 2500 nM
IC50 (Caco-2): 19.7 µM
IC50 (Jurkat): 2000 nM
IC50 (MCF7 [7]): 2000 nM
IC50 (HCT-116 [8]): 43.9 µM

CC(C)(C)OC(=O)N1CCC2(CC1)NC(=O)c1ccccc1N2
inhibition at 10 µM [16]: 100%

COc1ccc(-n2nc(-c3ccccc3)nc2N2C(=O)COC23C=CC(=O)C=C3)cc1
IC50 (MDA-MB-231 [17]): 27.7 nM
IC50 (HeLa [18]): 10 nM
IC50 (MCF7 [19]): 88.8 nM
IC50 (A549 [20]): 26.8 nM

O=C1CC(c2ccccc2)C2(C(=O)Oc3ccccc3C2=O)C(c2ccccc2)C1 (configuration not stated)
IC50 (U-937): 51.6 µM
IC50 (K562): 74 µM

CN1CCN(Cc2ccc([N+](=O)[O-])cc2)P12=NP(N1CCCC1)(N1CCCC1)=NP(N1CCCC1)(N1CCCC1)=N2 (configuration not stated)
Activity (L929): 70%
Activity (MDA-MB-231 [3]): 30%

O=C1C=CC2(C=C1Br)OCC(=O)N2c1nc(-c2cccc(Cl)c2)nn1-c1ccccc1 (configuration not stated)
IC50 (MDA-MB-231 [17]): 0.8 nM
IC50 (HeLa [18]): 45.3 nM
IC50 (MCF7 [19]): 4.11 nM
IC50 (A549 [20]): 25.2 nM

N#Cc1c(-c2ccc(Cl)cc2)c2c(n(CC(=O)O)c1=O)N(c1ccc(N)cc1)C1(CCCCC1)S2
IC50 (MCF7 [21]): 12.6 µg/mL (≈ 24.9 µM)
IC50 (HepG2 [22]): 9.29 µg/mL (≈ 18.3 µM)

CN1C(=O)C2(SCC3C(=O)N(CC(=O)NN)N=C(c4ccc(Cl)c(Cl)c4)C32)c2ccccc21 (configuration not stated)
IC50 (WI-38): 11.2 µM
IC50 (MCF7 [23]): 8.16 µM

O=C1N(C2CCCCC2)C(=O)C2(CC(c3ccccc3O)=NCCO2)N1C1CCCCC1 (configuration not stated)
IC50 (MCF7 [1]): 66.3 µM
IC50 (MDA-MB-231 [2]): 97.1 µM

COP1(=O)N(C)N=NC12SC1=CCCCC1=C2C#N (configuration not stated)
GI50 (PC-3): 12.4 µM
GI50 (MCF7 [15]): 6.35 µM
GI50 (COLO 205): 18.4 µM

CN1N=C(c2ccc(Cl)c(Cl)c2)C2C(CSC23CCCN3CCOCC(=O)NN)C1=O (configuration not stated)
IC50 (WI-38): 10.4 µM
IC50 (MCF7 [23]): 7.72 µM

N#Cc1c(N)nc2c(c1-c1ccc(Cl)cc1)SC1(CCCCC1)N2c1ccc(N)cc1
IC50 (MCF7 [21]): 30 µg/mL (≈ 67 µM)
IC50 (HepG2 [22]): 14.3 µg/mL (≈ 31.9 µM)

C1=CC2=CC3CCCC4=Cc5ccccc5OC43OC2C=C1 (configuration not stated)
GI50 [24]: < 10 µM

O=C1CC2(CCN(S(=O)(=O)c3cccc4ccccc34)CC2)Oc2ccccc21
IC50 (A2780): 316 nM
IC50 (MCF7 [25]): 6.02 µM
IC50 (HT-29): 690 nM

CC1=CC(=O)C2(C(=O)O1)C(c1ccc(C(C)(C)C)cc1)CC(=O)CC2c1ccc(C(C)(C)C)cc1 (configuration not stated)
IC50 (U-937): 43.7 µM
IC50 (K562): 58.6 µM

COC1=CC2OC34Oc5cc(OC)ccc5C=C3CCCC4C=C2C=C1 (configuration not stated)
GI50 [24]: < 19 µM

O=C1NC2(CCNCC2)Nc2ccccc21
inhibition at 10 µM [16]: 100%

O=C1CC2(CCN(S(=O)(=O)c3ccccc3)CC2)Oc2ccccc21
IC50 (A2780): 310 nM
IC50 (MCF7 [25]): 5.62 µM
IC50 (HT-29): 470 nM

Source: ChEMBL document CHEMBL5233269, “Anticancer potential of spirocompounds in medicinal chemistry: A pentennial expedition” (Eur J Med Chem, 2021)
